Experimental data from patent US8729048B2, “Methods and materials for assessing responsiveness to PARP inhibitors and platinating agents” (Mayo Foundation for Medical Education and Research, priority 2011, dated 2014).

Tested on: phospho-H2AX and phospho-DNA-PKcs foci in PEO1 cells
Assay: Immunofluorescence / confocal foci in PEO1 cells
Assay type: cell-based
Procedure: FIG. 2. DNA-PK is activated following PARP inhibitor exposure in PEO1 cells. (A) Western blots for poly(ADP-ribose) polymer (pADPr) and phosphorylation of DNA-PK substrates (DNA-PKcs autophosphorylation at Thr^2609 and Histone H2AX at Ser^139) in PEO1 cells following 72 hours exposure to increasing concentrations of ABT-888 (0, 0.625, 1.25, 2.5, 5, 10, 20, and 40 μM). Hsp90, total DNA-PKcs, and Histone H1 are used as loading controls. (B) Phosphorylation of DNA-PK substrates after treatment for 72 hours with diluent (0.2% DMSO, lanes 1 and 4), 500 nM DNA-PK inhibitor AZ12594248 (DNA-PKi, lanes 2 and 5), or 5 μM ATM inhibitor KU55933 (ATMi, lanes 3 and 6) alone (lanes 1-3) or in combination with 20 μM ABT-888 (lanes 4-6). (C) Quantitation of cells positive for phospho-H2AX foci in PEO1 and PEO4 cells, following treatment with DMSO, 500 nM DNA-PKi, 20 μM ABT-888 (ABT), ABT-888 and DNA-PKi, 50 μM Etoposide (Etop), or 5 Gy ionizing radiation (IR). Cells were exposed to ABT-888 and/or DNA-PKi for 72 hours, etoposide for 1 hour, or allowed to recover for 1 hour after IR. Results are reported as mean±SEM of 3 independent experiments. (D) Confocal images of PEO1 cells treated as in […]. Phospho-Ser^139-H2AX is shown in green, phospho-Thr^2609-DNA-PKcs in red, and Hoechst 33258 in blue.
FIG. 8. PARP inhibition induces phosphorylation of DNA-PKcs selectively in PEO1 cells. (A) Quantitation of PEO1 cells positive for phospho-Ser^2056 DNA-PKcs foci following 72 hours exposure to increasing concentrations of ABT-888. (B) Quantitation of PEO1 cells positive for phospho-Ser^2056 DNA-PKcs foci following 72 hours exposure to diluent (0.2% DMSO), 500 nM DNA-PKi, 5 μM ATMi alone (columns 1-3) or with 20 μM ABT-888 (columns 4-6). (C) Representative confocal images of PEO1 cells from (B). Phospho-H2AX is shown in green, phospho-Thr^2609 DNA-PKcs in red, and Hoechst 33258 in blue. Results in (A) and (B) are presented as means±SEM of 3 independent experiments.
FIG. 9. siRNA-mediated knockdown of NHEJ components reduces ABT-888 induced formation of phospho-H2AX foci. PEO1 cells, following siRNA-mediated knockdown of Ku80 (A) or Artemis (B), were exposed to either diluent (0.1% DMSO) or 20 μM ABT-888 for 72 hours, fixed, and stained for phospho-H2AX foci. Positive nuclei were defined as having >10 foci. Results are presented as means±SEM of 3 independent experiments. […]
Coverslips were then washed three times with PBS and incubated for 1 h with Alexa Fluor 488- and/or 568-conjugated secondary antibody (Invitrogen) diluted 1:1000. […] Phospho-H2AX positive cells (defined as having >10 foci/cell) were counted on a Zeiss Axioplan microscope. […] Quantitation and image processing were performed using the Zeiss Zen software package and Adobe Photoshop CS3.

SMILES	effect on ABT-888-induced formation of foci and phosphorylation of DNA-PKcs (500 nM DNA-PKi with 20 μM ABT-888, 72 hours)	phospho-H2AX foci (20 μM ABT-888, 72 hours)	DNA-PKcs autophosphorylation at Ser2056 (72 hours)	ABT-888 induced phospho-H2AX foci after downregulation of Ku80 or Artemis (siRNA knockdown, 20 μM ABT-888, 72 hours)
CCN1CCN(CC(=O)Nc2ccc(-c3cccc4c(=O)cc(N5CCOCC5)oc34)c3sc4ccccc4c23)CC1 [AZ 12594248]	reduced	–	–	–
C[C@]1(c2nc3c(C(N)=O)cccc3[nH]2)CCCN1 [ABT-888]	–	induced phospho-H2AX foci	increased	reduced ABT-888 induced phospho-H2AX foci
